Data on 13 molecules can be found in patent publication US11655235B2, “Pyrrolidine and piperidine compounds” (YUHAN CORPORATION, priority 2019, dated 2023).

Each structure is given as a SMILES string.

Format in all cases: biochemical
One test addresses T1, Recombinant human FAP (Homo sapiens, UniProt Q12884).
T1 construct: purchased R&D systems
T1 sequence (Q12884 1-760): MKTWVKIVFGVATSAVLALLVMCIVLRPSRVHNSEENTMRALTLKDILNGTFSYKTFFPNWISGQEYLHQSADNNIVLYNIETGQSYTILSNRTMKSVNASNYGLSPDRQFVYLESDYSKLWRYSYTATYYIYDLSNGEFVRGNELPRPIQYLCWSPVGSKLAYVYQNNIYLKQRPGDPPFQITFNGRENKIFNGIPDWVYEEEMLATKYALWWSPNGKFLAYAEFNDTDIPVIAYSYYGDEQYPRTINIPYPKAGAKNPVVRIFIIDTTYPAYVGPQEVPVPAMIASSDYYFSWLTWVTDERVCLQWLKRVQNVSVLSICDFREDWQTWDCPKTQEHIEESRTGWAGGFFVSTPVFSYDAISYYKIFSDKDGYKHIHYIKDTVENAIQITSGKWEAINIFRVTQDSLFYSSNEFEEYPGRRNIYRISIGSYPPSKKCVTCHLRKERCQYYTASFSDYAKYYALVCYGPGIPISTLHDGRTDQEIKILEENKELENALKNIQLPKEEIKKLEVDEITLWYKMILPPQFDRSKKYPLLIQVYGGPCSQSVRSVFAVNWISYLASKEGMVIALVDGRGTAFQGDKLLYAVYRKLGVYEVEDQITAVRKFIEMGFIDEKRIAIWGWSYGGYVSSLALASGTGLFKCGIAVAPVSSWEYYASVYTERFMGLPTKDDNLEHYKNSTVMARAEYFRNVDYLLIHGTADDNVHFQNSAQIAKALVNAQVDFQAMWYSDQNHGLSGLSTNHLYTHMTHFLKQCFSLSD
Put plainly: FAP FRET assay, FGF21-sequence FRET peptide substrate. The settings on record: FRET peptide with human FGF21 sequence, 6 μM, 37° C. The procedure, abridged: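 Recombinant human FAP, 10 ng per reaction, in 50 mM HEPES pH 7.2 with 150 mM NaCl, 0.1 mg/ml BSA, 1 mM EDTA; HyLite Fluor 488/QXL 520 FRET peptide of human FGF21 sequence at 6 μM final, ≤0.1% DMSO, 37° C. IC50 from 8-point curves by four-parameter logistic fit.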

The target of a further test is DPP4 (Homo sapiens, UniProt P27487). Put plainly: DPP4 inhibition, fluorogenic substrate H-Gly-Pro-AMC. More on the design: purchased R&D Systems. The settings on record: recombinant human DPP4.
In the next test the target is T2, recombinant human DPP8 (Homo sapiens, UniProt Q6V1X1).
T2 construct: purchased PBS Bioscience
Put plainly: DPP8 inhibition, fluorogenic substrate Z-Ala-Pro-AMC. The settings on record: recombinant human DPP8. The gist of the method:
(§1)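 Enzyme per reaction: 50 ng DPP9, 20 ng DPP8, 10 ng each DPP7 and PREP. Compounds were serially diluted (8 points, up to 0.5% DMSO) and incubated at 25 °C.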

The next test addresses T3, recombinant human DPP7 (Homo sapiens, UniProt Q9UHL4).
T3 construct: purchased R&D Systems
Briefly: DPP7 inhibition, fluorogenic substrate Lys-Pro-AMC. The settings on record: recombinant human DPP7. The gist of the method: as §1

The target of a further test is T4, recombinant human PREP (Homo sapiens, UniProt P48147).
T4 construct: purchased R&D System
T4 sequence (P48147 1-710): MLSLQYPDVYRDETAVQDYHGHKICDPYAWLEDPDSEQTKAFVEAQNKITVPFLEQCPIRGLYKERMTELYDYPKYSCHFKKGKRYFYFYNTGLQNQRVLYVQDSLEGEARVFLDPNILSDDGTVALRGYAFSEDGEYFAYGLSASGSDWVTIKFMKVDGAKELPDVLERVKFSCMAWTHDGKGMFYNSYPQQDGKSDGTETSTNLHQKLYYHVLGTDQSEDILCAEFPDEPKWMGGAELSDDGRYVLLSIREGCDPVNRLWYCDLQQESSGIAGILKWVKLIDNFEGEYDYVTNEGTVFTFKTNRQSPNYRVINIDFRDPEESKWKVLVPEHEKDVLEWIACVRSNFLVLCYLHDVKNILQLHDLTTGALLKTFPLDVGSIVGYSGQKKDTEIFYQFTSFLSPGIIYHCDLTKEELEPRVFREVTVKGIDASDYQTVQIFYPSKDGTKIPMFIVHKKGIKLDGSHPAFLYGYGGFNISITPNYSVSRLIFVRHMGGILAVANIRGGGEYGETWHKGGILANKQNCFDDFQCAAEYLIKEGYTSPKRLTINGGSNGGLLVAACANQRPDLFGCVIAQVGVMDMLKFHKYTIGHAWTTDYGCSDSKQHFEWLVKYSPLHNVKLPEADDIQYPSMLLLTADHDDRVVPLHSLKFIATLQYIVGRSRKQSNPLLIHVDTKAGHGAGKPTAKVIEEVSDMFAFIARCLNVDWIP
Put plainly: PREP inhibition, fluorogenic substrate Z-Gly-Pro-AMC. The conditions noted are these: Inhibitory Activity (IC50, nM) PREP, recombinant human PREP. The procedure, abridged:
as §1

The next test concerns the target T5, recombinant human DPP9 (Homo sapiens, UniProt Q86TI2).
T5 construct: purchased R&D Systems
Briefly: DPP9 inhibition, fluorogenic substrate H-Gly-Pro-AMC. The settings on record: recombinant human DPP9. The procedure, abridged: as §1

Sequence of DPP4 (P27487 whole entry): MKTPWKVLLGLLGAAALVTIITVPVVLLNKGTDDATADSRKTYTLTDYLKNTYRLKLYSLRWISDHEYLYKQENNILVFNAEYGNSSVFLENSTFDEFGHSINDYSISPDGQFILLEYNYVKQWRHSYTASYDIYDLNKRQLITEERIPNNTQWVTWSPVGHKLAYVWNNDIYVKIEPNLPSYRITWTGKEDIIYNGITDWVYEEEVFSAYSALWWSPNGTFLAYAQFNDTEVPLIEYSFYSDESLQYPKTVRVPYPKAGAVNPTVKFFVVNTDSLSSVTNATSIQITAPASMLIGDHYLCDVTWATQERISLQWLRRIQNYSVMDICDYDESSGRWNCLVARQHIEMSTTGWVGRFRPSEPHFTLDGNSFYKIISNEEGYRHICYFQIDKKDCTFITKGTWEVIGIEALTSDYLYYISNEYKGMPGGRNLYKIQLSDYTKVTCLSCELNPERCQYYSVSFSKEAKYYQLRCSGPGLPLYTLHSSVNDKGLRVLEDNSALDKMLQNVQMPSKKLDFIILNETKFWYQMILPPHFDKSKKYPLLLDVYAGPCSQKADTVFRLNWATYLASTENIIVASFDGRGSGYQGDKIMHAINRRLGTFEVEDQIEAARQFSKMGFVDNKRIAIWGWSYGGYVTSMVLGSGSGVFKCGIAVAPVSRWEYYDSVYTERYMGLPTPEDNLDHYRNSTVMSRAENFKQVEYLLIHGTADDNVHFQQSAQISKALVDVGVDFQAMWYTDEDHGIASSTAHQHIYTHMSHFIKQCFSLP
T2 sequence (Q6V1X1 whole entry): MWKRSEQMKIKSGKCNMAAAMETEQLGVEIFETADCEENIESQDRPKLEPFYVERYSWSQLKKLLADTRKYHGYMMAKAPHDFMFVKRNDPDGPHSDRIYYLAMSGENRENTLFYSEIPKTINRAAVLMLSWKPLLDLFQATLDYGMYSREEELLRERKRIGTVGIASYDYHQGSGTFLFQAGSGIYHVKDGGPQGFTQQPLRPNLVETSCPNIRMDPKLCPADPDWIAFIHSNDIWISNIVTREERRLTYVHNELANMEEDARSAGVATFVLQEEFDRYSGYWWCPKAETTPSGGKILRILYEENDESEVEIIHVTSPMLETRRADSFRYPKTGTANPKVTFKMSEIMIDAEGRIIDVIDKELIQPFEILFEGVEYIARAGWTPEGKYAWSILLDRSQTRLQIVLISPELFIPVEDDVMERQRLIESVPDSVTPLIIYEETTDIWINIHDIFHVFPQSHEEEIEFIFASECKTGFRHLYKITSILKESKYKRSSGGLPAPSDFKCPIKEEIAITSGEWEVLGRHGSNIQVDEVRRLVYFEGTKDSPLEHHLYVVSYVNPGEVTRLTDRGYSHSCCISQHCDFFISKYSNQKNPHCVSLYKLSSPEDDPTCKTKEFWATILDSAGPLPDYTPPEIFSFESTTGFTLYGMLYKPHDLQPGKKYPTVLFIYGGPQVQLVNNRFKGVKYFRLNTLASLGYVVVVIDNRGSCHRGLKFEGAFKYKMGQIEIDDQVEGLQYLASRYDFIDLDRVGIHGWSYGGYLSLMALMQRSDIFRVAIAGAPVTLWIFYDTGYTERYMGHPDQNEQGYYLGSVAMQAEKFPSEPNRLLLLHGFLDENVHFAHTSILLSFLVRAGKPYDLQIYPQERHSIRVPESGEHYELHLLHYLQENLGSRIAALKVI
T5 sequence (Q86TI2 whole entry): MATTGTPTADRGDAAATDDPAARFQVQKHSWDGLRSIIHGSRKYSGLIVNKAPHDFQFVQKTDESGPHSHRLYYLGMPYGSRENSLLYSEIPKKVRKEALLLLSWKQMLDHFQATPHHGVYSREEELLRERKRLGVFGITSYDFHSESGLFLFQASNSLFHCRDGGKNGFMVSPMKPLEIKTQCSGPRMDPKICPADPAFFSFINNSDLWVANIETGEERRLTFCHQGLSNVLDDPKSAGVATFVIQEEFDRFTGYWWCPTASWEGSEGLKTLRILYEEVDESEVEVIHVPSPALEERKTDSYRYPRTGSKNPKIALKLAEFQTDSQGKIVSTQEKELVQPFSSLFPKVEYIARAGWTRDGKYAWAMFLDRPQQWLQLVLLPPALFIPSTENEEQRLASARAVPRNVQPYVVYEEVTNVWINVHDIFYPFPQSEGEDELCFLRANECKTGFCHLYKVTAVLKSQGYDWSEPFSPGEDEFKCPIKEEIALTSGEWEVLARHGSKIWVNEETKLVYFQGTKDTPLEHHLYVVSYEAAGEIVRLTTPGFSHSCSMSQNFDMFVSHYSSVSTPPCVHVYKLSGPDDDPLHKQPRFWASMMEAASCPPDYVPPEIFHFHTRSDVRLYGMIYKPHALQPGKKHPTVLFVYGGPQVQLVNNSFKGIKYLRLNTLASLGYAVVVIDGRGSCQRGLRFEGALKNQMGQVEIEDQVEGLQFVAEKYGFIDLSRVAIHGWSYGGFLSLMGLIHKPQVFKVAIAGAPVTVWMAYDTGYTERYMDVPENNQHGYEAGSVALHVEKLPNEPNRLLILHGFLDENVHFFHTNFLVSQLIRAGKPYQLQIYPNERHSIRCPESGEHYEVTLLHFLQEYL

In general, IC50 refers to the point on the concentration scale where inhibition reaches its midpoint. In the case of `CNC(=O)c1ccc(N[C@H]2CCN(CC(=O)N3C[C@@H](F)C[C@H]3C#N)C2)c2cccnc12` [Example 281, N-methyl-5-[[(3S)-1-[2-oxo-2-[(2S,4S)-2-cyano-4-fluoro-pyrrolidin-1-yl]ethyl]pyrrolidin-3-yl]amino]quinoline-8-carboxamide], the IC50 at Recombinant human FAP was found to be 3.4 nM; at DPP4, 2750 nM; on recombinant human DPP8 it was 4450 nM; at recombinant human DPP7, 1130 nM; at recombinant human PREP, 2450 nM; at recombinant human DPP9 it was 2600 nM.

For the molecule `N#C[C@@H]1C[C@H](F)CN1C(=O)CN1CCC(Nc2ccc(C(=O)Nc3cccnc3)c3ncccc23)CC1` [Example 405, 5-[[1-[2-oxo-2-[(2S,4S)-2-cyano-4-fluoro-pyrrolidin-1-yl]ethyl]-4-piperidyl]amino]-N-(3-pyridyl)quinoline-8-carboxamide], the IC50 at Recombinant human FAP was found to be 1.9 nM; at DPP4, 2160 nM; at recombinant human DPP8, 66.7 nM; at recombinant human DPP7, 392 nM; at recombinant human PREP, 597 nM; on recombinant human DPP9, 398 nM.

As to `Cc1cccc2c(OC3CCN(CC(=O)N4C[C@@H](F)C[C@H]4C#N)CC3)ccnc12` [Example 439, (2S,4S)-4-fluoro-1-[2-[4-[(8-methyl-4-quinolyl)oxy]-1-piperidyl]acetyl]pyrrolidine-2-carbonitrile], the half-maximal inhibitory concentration (IC50) turned out to be 3.7 nM on Recombinant human FAP; 6310 nM on DPP4; 2700 nM on recombinant human DPP8; 3110 nM on recombinant human DPP7; 75 nM at recombinant human PREP; 5460 nM at recombinant human DPP9.

For the molecule `N#C[C@@H]1C[C@H](F)CN1C(=O)CN1CCC(Oc2ccnc3cc(F)ccc23)CC1` [Example 433, (2S,4S)-4-fluoro-1-[2-[4-[(7-fluoro-4-quinolyl)oxy]-1-piperidyl]acetyl]pyrrolidine-2-carbonitrile], the IC50 at Recombinant human FAP was determined as 5.1 nM; on DPP4, 5680 nM; on recombinant human DPP8, 3060 nM; on recombinant human DPP7, 3070 nM; on recombinant human PREP, 98 nM; on recombinant human DPP9 it was 3890 nM.

As to `N#Cc1cccc2c(OC3CCN(CC(=O)N4C[C@@H](F)C[C@H]4C#N)CC3)ccnc12` [Example 434, 4-[[1-[2-oxo-2-[(2S,4S)-2-cyano-4-fluoro-pyrrolidin-1-yl]ethyl]-4-piperidyl]oxy]quinoline-8-carbonitrile], the 50% inhibitory concentration (IC50) on Recombinant human FAP is 3.6 nM; at DPP4, 2440 nM; on recombinant human DPP8, 2740 nM; at recombinant human DPP7, 4310 nM; on recombinant human PREP, 395 nM; on recombinant human DPP9 it was 4510 nM.

For the molecule `Cc1cc(OC2CCN(CC(=O)N3C[C@@H](F)C[C@H]3C#N)CC2)c2cc(F)ccc2n1` [Example 437, (2S,4S)-4-fluoro-1-[2-[4-[(6-fluoro-2-methyl-4-quinolyl)oxy]-1-piperidyl]acetyl]pyrrolidine-2-carbonitrile], the half-inhibitory concentration (IC50) on Recombinant human FAP came to 1.8 nM; on DPP4 it was 4490 nM; on recombinant human DPP8, 4150 nM; on recombinant human DPP7, 6260 nM; on recombinant human PREP, 454 nM; at recombinant human DPP9 it was 17400 nM.

As to `N#C[C@@H]1C[C@H](F)CN1C(=O)CN1CCC(Nc2ccc(C(=O)Nc3ncccn3)c3ncccc23)CC1` [Example 403, 5-[[1-[2-oxo-2-[(2S,4S)-2-cyano-4-fluoro-pyrrolidin-1-yl]ethyl]-4-piperidyl]amino]-N-pyrimidin-2-yl-quinoline-8-carboxamide], the IC50 at Recombinant human FAP turned out to be 1.8 nM; at DPP4 it was 2080 nM; on recombinant human DPP8, 251 nM; on recombinant human DPP7, 405 nM; at recombinant human PREP it was 60.2 nM; at recombinant human DPP9 it was 558 nM.

Take `N#C[C@@H]1CCCN1C(=O)CN1CCC(Nc2ccc(C(=O)Nc3ccncc3)c3ncccc23)CC1` [Example 401, 5-[[1-[2-oxo-2-[(2S)-2-cyanopyrrolidin-1-yl]ethyl]-4-piperidyl]amino]-N-(4-pyridyl)quinoline-8-carboxamide]: the IC50 on Recombinant human FAP was 5.9 nM; at DPP4, 15200 nM; at recombinant human DPP8, 266 nM; at recombinant human DPP7, 775 nM; at recombinant human PREP, 1200 nM; at recombinant human DPP9, 1610 nM.

As to `N#C[C@@H]1CCCN1C(=O)CN1CCC(Nc2ccc(C(=O)Nc3ccccn3)c3ncccc23)CC1` [Example 399, 5-[[1-[2-oxo-2-[(2S)-2-cyanopyrrolidin-1-yl]ethyl]-4-piperidyl]amino]-N-(2-pyridyl)quinoline-8-carboxamide], the IC50 came out at 1.5 nM on Recombinant human FAP; 17400 nM on DPP4; 1200 nM on recombinant human DPP8; 1010 nM on recombinant human DPP7; 627 nM on recombinant human PREP; 3330 nM at recombinant human DPP9.

Regarding `COc1cccc2c(OC3CCN(CC(=O)N4C[C@@H](F)C[C@H]4C#N)CC3)ccnc12` [Example 438, (2S,4S)-4-fluoro-1-[2-[4-[(8-methoxy-4-quinolyl)oxy]-1-piperidyl]acetyl]pyrrolidine-2-carbonitrile], the half-inhibitory concentration (IC50) on Recombinant human FAP is 7.7 nM; on DPP4, 5670 nM; on recombinant human DPP8, 3380 nM; at recombinant human DPP7, 3580 nM; at recombinant human PREP, 156 nM; at recombinant human DPP9, 5970 nM.

For the molecule `N#C[C@@H]1C[C@H](F)CN1C(=O)CN1CCC(Nc2ccc(C(=O)Nc3ccon3)c3ncccc23)CC1` [Example 407, N-isoxazol-3-yl-5-[[1-[2-oxo-2-[(2S,4S)-2-cyano-4-fluoro-pyrrolidin-1-yl]ethyl]-4-piperidyl]amino]quinoline-8-carboxamide], the IC50 at Recombinant human FAP was 3.4 nM; on DPP4 it was 1820 nM; on recombinant human DPP8 it was 314 nM; on recombinant human DPP7, 395 nM; on recombinant human PREP, under 30 nM; on recombinant human DPP9, 756 nM.

For the molecule `CN(c1ccc(F)c2ncccc12)[C@H]1CCN(CC(=O)N2C[C@@H](F)C[C@H]2C#N)C1` [Example 158, (2S,4S)-4-fluoro-1-(2-((S)-3-((8-fluoroquinolin-5-yl)(methyl)amino)pyrrolidin-1-yl)acetyl)pyrrolidine-2-carbonitrile], the concentration for half-maximal inhibition (IC50) at Recombinant human FAP amounted to 4 nM; on DPP4, 2090 nM; at recombinant human DPP8 it was 8620 nM; at recombinant human DPP7, 4900 nM; at recombinant human PREP, 1720 nM; at recombinant human DPP9 it was 3370 nM.

As to `N#C[C@@H]1CCCN1C(=O)CN1CC[C@@H](Nc2ccc(F)c3ncccc23)C1` [Example 199, (2S)-1-[2-[(3R)-3-[(8-fluoro-5-quinolyl)amino]pyrrolidin-1-yl]acetyl]pyrrolidine-2-carbonitrile], the IC50 turned out to be 2.3 nM on Recombinant human FAP; 2620 nM at DPP4; 8230 nM at recombinant human DPP8; 8010 nM on recombinant human DPP7; 7250 nM at recombinant human PREP; 10900 nM at recombinant human DPP9.
